Data on five compounds can be found in patent US6350776B1, “Method of treating proliferative disease with lycopene and alpha-tocopherol” (priority 1999, dated 2002).

In one assay the test system is hepatoma cells (HepG2). As to the kind of experiment: Cell proliferation assay (thymidine incorporation), HepG2. It counts as cell-based, human. Conditions: 50 μM alpha-tocopherol, lycopene 0 μM, 24 hours, vs solvent control. On the procedure: (§1) Culture media and antibiotics were from Gibco (Grand Island, N.Y., USA). Fetal calf serum was from PAA Labor (Linz, Austria), Human prostate carcinoma, androgen insensitive, cell lines DU-145 and PC-3, colon carcinoma cell line Caco-2, hepatoma cell line HepG2, and rat aortic smooth muscle cell line A7r5 were from American Type Culture Collection (Rockville, Md., USA). DU-146 cells were grown in minimum essential medium (EM), PC-3 cells in F-12K medium, both containing antibiotics and 10% fetal calf serum (FCS). Caco-2 cells were grown in MEM containing 20% FCS. HepG2 cells were grown in MEM containing 10% FCS, and A7r5 cells were grown in DMEM containing 10% FCS.
(§2) Cell proliferation was assayed using two methods, cell count and thymidine incorporation:
(§3) Thymidine incorporation. Colon carcinoma cells (Caco-2) and hepatoma cells (HepG2) seeded into 6 multiwell plates (30,000 cells/well) after treatment were pulsed with [^3H] thymidine (0.5 μCi per well) for two hours. […] The radioactivity incorporated into the acid-insoluble material was determined in a liquid scintillation analyzer.
(§4) The values in Table 1 are expressed as percent of inhibition of proliferation as compared to proliferation of control cells treated with solvent alone. […] Proliferation was assessed as indicated in the Materials and Methods. […]

Assay [1] has as its system colon carcinoma cells (Caco-2). Briefly: Cell proliferation assay (thymidine incorporation), Caco-2. It counts as cell-based, human. Conditions: 50 μM alpha-tocopherol, lycopene 0 μM, 24 hours, vs solvent control. On the procedure:
as §1, §2, §3, §4

Assay [2] relates to rat aortic smooth muscle cells (A7r5). As to the kind of experiment: Cell proliferation assay (cell count), A7r5. It counts as cell-based. The conditions noted are these: 50 μM alpha-tocopherol, lycopene 0 μM, 24 hours, vs solvent control. The protocol:
Culture media and antibiotics were from Gibco (Grand Island, N.Y., USA). Fetal calf serum was from PAA Labor (Linz, Austria), Human prostate carcinoma, androgen insensitive, cell lines DU-145 and PC-3, colon carcinoma cell line Caco-2, hepatoma cell line HepG2, and rat aortic smooth muscle cell line A7r5 were from American Type Culture Collection (Rockville, Md., USA). DU-146 cells were grown in minimum essential medium (EM), PC-3 cells in F-12K medium, both containing antibiotics and 10% fetal calf serum (FCS). Caco-2 cells were grown in MEM containing 20% FCS. HepG2 cells were grown in MEM containing 10% FCS, and A7r5 cells were grown in DMEM containing 10% FCS. Cell proliferation was assayed using two methods, cell count and thymidine incorporation: Cell count. Cells were seeded into 6-multiwell plates (20,000 cells/well). When cells reached approximately 50% confluence, the indicated concentrations of the compounds were added. THF was added to control cells to account for the effect of the solvent in the compound solutions. Cells were washed, trypsinized, resuspended and counted in duplicate at the indicated times by trypan blue dye exclusion with a hemocytometer. […] The values in Table 1 are expressed as percent of inhibition of proliferation as compared to proliferation of control cells treated with solvent alone. […] Proliferation was assessed as indicated in the Materials and Methods. […]

Assay [3] has as its system Prostate cancer cells (DU-145). Briefly: Cell proliferation assay (cell count), DU-145. The assay is classed as cell-based, human. The conditions noted are these: for potentiation of the anti-proliferative effect of lycopene: DU-145, 50 μM of the compound with 1 μM lycopene (FIG. 3). On the procedure: Culture media and antibiotics were from Gibco (Grand Island, N.Y., USA). Fetal calf serum was from PAA Labor (Linz, Austria), Human prostate carcinoma, androgen insensitive, cell lines DU-145 and PC-3, colon carcinoma cell line Caco-2, hepatoma cell line HepG2, and rat aortic smooth muscle cell line A7r5 were from American Type Culture Collection (Rockville, Md., USA). DU-146 cells were grown in minimum essential medium (EM), PC-3 cells in F-12K medium, both containing antibiotics and 10% fetal calf serum (FCS). Caco-2 cells were grown in MEM containing 20% FCS. HepG2 cells were grown in MEM containing 10% FCS, and A7r5 cells were grown in DMEM containing 10% FCS. Cell proliferation was assayed using two methods, cell count and thymidine incorporation: Cell count. Cells were seeded into 6-multiwell plates (20,000 cells/well). When cells reached approximately 50% confluence, the indicated concentrations of the compounds were added. THF was added to control cells to account for the effect of the solvent in the compound solutions. Cells were washed, trypsinized, resuspended and counted in duplicate at the indicated times by trypan blue dye exclusion with a hemocytometer. […] The values in Table 1 are expressed as percent of inhibition of proliferation as compared to proliferation of control cells treated with solvent alone. Prostate cancer cells (DU-145), hepatoma cells (HepG2), colon carcinoma cells (Caco-2) and rat aortic smooth muscle cells (A7r5) were treated with different concentrations of lycopene as indicated and 50 μM alpha-tocopherol for 24 hours. […] Proliferation was assessed as indicated in the Materials and Methods. Data are means±SD of five experiments in duplicate.

Assay [4] relates to prostate carcinoma cell proliferation. The conditions noted are these: in vitro studies, background; cited from earlier work.

The structures appear in SMILES notation. Where only a bound is given, the exact number is not on record here.

Turning to `Cc1c(C)c2c(c(C)c1O)CCC(C)(CCCC(C)CCCC(C)CCCC(C)C)O2` (racemic) [Alpha-Tocopherol, DL-alpha-tocopherol], the “percent of inhibition of proliferation” value with hepatoma cells (HepG2) was found to be 5 ± 1%; in assay [1] it was 25 ± 3%; in assay [2] it was 40 ± 5%; in assay [3] (DU 145, 50 μM alpha-tocopherol, lycopene 0 μM, 24 hours, vs solvent control) it was 40 ± 6%. In addition, in assay [3], the “potentiation of the anti-proliferative effect of lycopene” value (from here on “potentiation”) is on record as “potentiates the anti-proliferative effect of lycopene”.
For the compound `Cc1cc(O)c(C)c2c1O[C@](C)(CCC[C@H](C)CCC[C@H](C)CCCC(C)C)CC2` (racemic) [β-tocopherol, DL-β-tocopherol], the “potentiation” value in assay [3] was “this effect is specific to alpha-tocopherol as compared to other anti-oxidants”.
The same measure, in the same setting: as for `O=C1O[C@H]([C@@H](O)CO)C(O)=C1O` [ascorbic acid, L-ascorbic acid], the entry is “this effect is specific to alpha-tocopherol as compared to other anti-oxidants”.
Consider `CC(C)=CCC/C(C)=C/C=C/C(C)=C/C=C/C(C)=C/C=C/C=C(C)/C=C/C=C(C)/C=C/C=C(\C)CCC=C(C)C` [lycopene], for which, in assay [4], the “concentrations with inhibitory effect on prostate carcinoma cell proliferation” value was at least 50 µM.
With `CC(C)(Sc1cc(C(C)(C)C)c(O)c(C(C)(C)C)c1)Sc1cc(C(C)(C)C)c(O)c(C(C)(C)C)c1` [probucol], the “potentiation” value in assay [3] is recorded as “this effect is specific to alpha-tocopherol as compared to other anti-oxidants”.
